Data taken from patent publication US8901118B2, “Compounds and methods for kinase modulation, and indications therefor” (Plexxikon Inc., priority 2010, dated 2014).
pIC50: −log10 of the molar value.

What was measured:
[1] = target: T1, BCR-NTRK1 BaF3 cells (Homo sapiens, UniProt P04629); assay: BaF3 BCR-NTRK1 cell proliferation assay (ATPlite); type: cell-based; conditions: read-out: Inhibition of Cell Proliferation IC50, BCR/BaF3 TrkA
T1 construct: fused on or other part: P11274 (Breakpoint cluster region protein)
T1 sequence (P04629 510-781): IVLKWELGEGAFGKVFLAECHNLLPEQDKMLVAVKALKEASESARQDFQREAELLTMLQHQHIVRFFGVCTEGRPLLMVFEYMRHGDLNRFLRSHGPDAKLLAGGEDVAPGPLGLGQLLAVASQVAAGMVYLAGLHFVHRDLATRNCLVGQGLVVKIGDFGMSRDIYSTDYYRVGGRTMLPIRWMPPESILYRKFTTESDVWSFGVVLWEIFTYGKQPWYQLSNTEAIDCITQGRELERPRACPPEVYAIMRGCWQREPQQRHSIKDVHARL
Procedure: (§1) Compounds are assessed in a variety of cell based assays. For example BaF3 cells engineered with any of BCR-FMS, BCR-KIT, BCR-FLT3, BCR-NTRK1, BCR-NTRK2, and BCR-NTRK3, are used in cell proliferation assays to assess inhibitory activity of Fms, Kit, Flt-3, TrkA, TrkB, and TrkC, respectively. An MV-4-11 (leukemia) cell proliferation assay is used to assess inhibitory activity in Flt-3, and SKNSH (human neuroblastoma) cell proliferation assay is used to assess efficacy of Fms/Trk inhibitors. Additional cells may be assayed similarly to assess the efficacy of Fms/Trk inhibitors, such as MiaPaCa (human pancreatic cancer) and Capan-1 (human pancreatic carcinoma) cells. Reagent and assay conditions are as follows: • BaF3 cells: • Maintained in RPMI containing 10% FBS, 1% PenStrep, 1% NEAA, and 1% L-Glutamine, supplemented with 1 mg/mL G418 and 5% WEHI-CM (or recombinant murine IL-3). • Confluent cells are split 1:50 to 1:100 every 3-4 days. • MV-4-11 cells: • Maintained in Iscove's Modified Dulbecco's Medium containing 10% FBS. • Confluent cells are split 1:4 every 3-4 days. • SKNSH cells: RPMI containing 10% FBS. On day 1, cells are counted, then centrifuged in a conical tube for 5 minutes at 1000 rpm. The supernatant is removed and cells are re-suspended as follows: • BaF3: resuspend in growth media +1 mg/mL G418 (without WEHFIL-3) to 2×10^5 cells/mL. • MV-4-11: resuspend in growth media to 5×10^5 cells/mL. • SKNSH: resuspend in growth media to 2×10^4 cells/mL. The cells are plated (50 μL, 150 μL for SKNSH cells) in each well of a 96-well dish (Corning 3610) and incubated at 37° C. in 5% CO2 overnight, cells plated to a final concentration of cells as follows: • BaF3: 10,000 cells per well. • MV-4-11: 25,000 cells per well. • SKNSH: 3,000 cells per well. On day 2, compound at a maximum concentration of 5 mM is serially diluted 1:3 for a total of 8 point titration with DMSO as a control. A 1 μL aliquot of each dilution point is added to 249 μL growth media and 50 μL is added to a well containing cells, providing 10 μM compound for the maximum concentration point. The cells are incubated for 3 days at 37° C. in 5% CO2. For SKNSH cells, a 0.75 μL aliquot of appropriate dilution in DMSO is added to 150 μL of cells. On day 5, ATPlite 1 step Luminescence Assay System (Perkin Elmer #6016739) is brought to room temperature along with the cell cultures. ATPlite is added to each well as follows: • BaF3: 25 μL per well. • MV-4-11: 40 μL per well. • SKNSH: 20 μL per well. The cells are incubated at room temperature for 10 minutes, then luminescence is read on Safire reader. The measured luminescence correlates directly with cell number, such that the reading as a function of compound concentration is used to determine the IC50 value.
(§2) It is understood that the results of these assays may vary as assay conditions are varied. Inhibition levels determined under the conditions described herein represent a relative activity for the compounds tested under the specific conditions employed. The cell based assays are likely to show variability due to the complexity of the system and the sensitivity thereof to any changes in the assay conditions. […] Results for compounds that are tested and show substantially no inhibition below the highest tested concentration are represented as “-” in the tables below. In some instances, the compounds were not tested in all of the assays, or assay results were not valid, as indicated by NA in the tables below.

[2] = target: CYP2D6 (Homo sapiens, UniProt P10635); assay: CYP2D6 inhibition (fluorescent substrate AMMC); type: in vitro ADME; conditions: read-out: Cyp IC50 2D6
Sequence of CYP2D6 (P10635 whole entry): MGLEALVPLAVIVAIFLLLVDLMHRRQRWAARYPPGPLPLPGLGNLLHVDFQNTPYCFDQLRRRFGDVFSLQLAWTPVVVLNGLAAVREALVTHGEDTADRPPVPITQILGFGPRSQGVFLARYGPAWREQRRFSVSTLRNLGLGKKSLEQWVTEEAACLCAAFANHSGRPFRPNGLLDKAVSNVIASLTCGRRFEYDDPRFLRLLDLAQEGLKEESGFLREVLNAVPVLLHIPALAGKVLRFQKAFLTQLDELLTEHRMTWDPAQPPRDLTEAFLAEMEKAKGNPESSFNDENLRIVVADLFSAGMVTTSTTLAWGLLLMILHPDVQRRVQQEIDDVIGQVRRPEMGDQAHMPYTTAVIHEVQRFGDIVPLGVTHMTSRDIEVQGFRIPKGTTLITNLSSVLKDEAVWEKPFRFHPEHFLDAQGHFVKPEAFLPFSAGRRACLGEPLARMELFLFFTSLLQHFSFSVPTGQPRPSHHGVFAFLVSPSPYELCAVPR
Procedure: CYP (Cytochrome P450) enzymes are the major drug metabolizing enzymes present in the liver. The inhibition of CYP enzyme activity (IC50) for each of CYP1A2, CYP2C19, CYP2C9, CYP2D6, CYP3A4(BFC) and CYP3A4(BQ) is determined for compounds, where inhibition of metabolism of a known substrate leads to a decrease in the fluorescence of the metabolized product. The fluorescence of the product is monitored as a function of compound concentration. Compounds are dissolved in DMSO to a concentration of 100 mM. These are diluted 1 μL into 82 μL of acetonitrile. An 11 μL aliquot of this solution is then added to 204 μL of cofactor mix (1.3% NADPH Regeneration system Solution A, 1.04% NADPH Regeneration system Solution B from BD Biosciences, 5% acetonitrile and 0.05% DMSO). These are then serially diluted 1:1 (160 μL to 160 μL co-factor mix) for a total of 10 points. A 10 μL aliquot of this final mixture is dispensed into 384 well assay plates and incubated for 10 minutes at 37° C. […] Assay plates are incubated at 37° C. (CYP1A2-15 min; CYP2C9-45 min; CYP2C19, 2D6 and 3A4-30 min) and read in a Tecan Safire 2 plate reader (CYP1A2, 2C19 and 3A4 409 ex/460 em; CYP2C9 and 2D6 409 ex/530 em). The signal versus compound concentration is used to determine the IC50. The enzymes and substrates for this assay are obtained from BD Biosciences.

[3] = target: T2, BCR-KIT BaF3 cells (Homo sapiens, UniProt P10721); assay: BaF3 BCR-KIT cell proliferation assay (ATPlite); type: cell-based; conditions: read-out: Inhibition of Cell Proliferation IC50, BCR/BaF3 Kit
T2 construct: fused on or other part: P11274 (Breakpoint cluster region protein)
T2 sequence (P10721 589-937): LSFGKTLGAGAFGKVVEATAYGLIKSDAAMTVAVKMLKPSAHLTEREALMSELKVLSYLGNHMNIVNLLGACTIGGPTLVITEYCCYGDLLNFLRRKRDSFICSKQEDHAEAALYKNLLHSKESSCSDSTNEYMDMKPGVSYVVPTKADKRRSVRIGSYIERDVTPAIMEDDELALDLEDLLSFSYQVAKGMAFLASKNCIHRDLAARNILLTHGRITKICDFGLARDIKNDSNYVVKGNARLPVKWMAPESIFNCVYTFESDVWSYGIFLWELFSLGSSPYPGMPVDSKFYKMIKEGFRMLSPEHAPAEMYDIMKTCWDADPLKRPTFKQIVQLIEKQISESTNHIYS
Procedure: as §1, §2

| SMILES | pIC50 [1] | pIC50 [2] | pIC50 [3] |
| --- | --- | --- | --- |
| COc1ccc(Nc2ccc(C(=O)c3c[nH]c4ncnc(NC(C)C)c34)c(F)n2)cn1 [Compound P-4066, [2-fluoro-6-[(6-methoxy-3-pyridyl)amino]-3-pyridyl]-[4-(isopropylamino)-7H-pyrrolo[2,3-d]pyrimidin-5-yl]methanone] | > 8.00 | < 5.00 | > 8.00 |
| CCCCNc1ncnc2[nH]cc(C(=O)c3ccc(Nc4ccc(CC)nc4)nc3F)c12 [Compound P-4100, [4-(butylamino)-7H-pyrrolo[2,3-d]pyrimidin-5-yl]-[6-[(6-ethyl-3-pyridyl)amino]-2-fluoro-3-pyridyl]methanone] | > 8.00 | > 5.30 | > 6.00 |
| CCCNc1ncnc2[nH]cc(C(=O)c3ccc(Nc4cncc(OC)c4)nc3F)c12 [Compound P-4105, [2-fluoro-6-[(5-methoxy-3-pyridyl)amino]-3-pyridyl]-[4-(propylamino)-7H-pyrrolo[2,3-d]pyrimidin-5-yl]methanone] | > 7.00 | < 5.00 | < 6.00 |
| COc1ccc(Nc2ccc(C(=O)c3c[nH]c4ncnc(N5CCCCC5)c34)c(F)n2)cn1 [Compound P-4069, [2-fluoro-6-[(6-methoxy-3-pyridyl)amino]-3-pyridyl]-[4-(1-piperidyl)-7H-pyrrolo[2,3-d]pyrimidin-5-yl]methanone] | < 6.00 | < 5.00 | < 6.00 |
| CCNc1ncnc2[nH]cc(C(=O)c3ccc(Nc4ccc(OC)nc4)nc3F)c12 [Compound P-4081, [4-(ethylamino)-7H-pyrrolo[2,3-d]pyrimidin-5-yl]-[2-fluoro-6-[(6-methoxy-3-pyridyl)amino]-3-pyridyl]methanone] | > 8.00 | < 5.00 | > 7.00 |
| COc1ccc(Nc2ccc(C(=O)c3c[nH]c4ncnc(N[C@@H](C)c5ccc(F)cc5)c34)c(F)n2)cn1 [Compound P-4072, [2-fluoro-6-[(6-methoxy-3-pyridyl)amino]-3-pyridyl]-[4-[[(1S)-1-(4-fluorophenyl)ethyl]amino]-7H-pyrrolo[2,3-d]pyrimidin-5-yl]methanone] | > 8.00 | 5.00 to 5.30 | > 6.00 |
| CNc1ncnc2[nH]cc(C(=O)c3ccc(Nc4ccc(OC)nc4)nc3OC)c12 [Compound P-4085, [2-methoxy-6-[(6-methoxy-3-pyridyl)amino]-3-pyridyl]-[4-(methylamino)-7H-pyrrolo[2,3-d]pyrimidin-5-yl]methanone] | > 6.00 |  | < 6.00 |
| CCc1ccc(Nc2ccc(C(=O)c3c[nH]c4ncnc(Nc5ccc(C)nc5)c34)c(F)n2)cn1 [Compound P-4086, [6-[(6-ethyl-3-pyridyl)amino]-2-fluoro-3-pyridyl]-[4-[(6-methyl-3-pyridyl)amino]-7H-pyrrolo[2,3-d]pyrimidin-5-yl]methanone] | > 8.00 |  |  |

The next lines start with the values.

| pIC50 [1] | pIC50 [2] | pIC50 [3] | SMILES |
| --- | --- | --- | --- |
| > 8.00 | > 5.30 | > 6.00 | CCc1ccc(Nc2ccc(C(=O)c3c[nH]c4ncnc(NC5CCC(F)(F)CC5)c34)c(F)n2)cn1 [Compound P-4096, [4-[(4,4-difluorocyclohexyl)amino]-7H-pyrrolo[2,3-d]pyrimidin-5-yl]-[6-[(6-ethyl-3-pyridyl)amino]-2-fluoro-3-pyridyl]methanone] |
| > 7.00 | < 5.00 | > 6.00 | COc1ccc(Nc2ccc(C(=O)c3c[nH]c4ncnc(NCC(F)(F)F)c34)c(F)n2)cn1 [Compound P-4084, [2-fluoro-6-[(6-methoxy-3-pyridyl)amino]-3-pyridyl]-[4-(2,2,2-trifluoroethylamino)-7H-pyrrolo[2,3-d]pyrimidin-5-yl]methanone] |
| > 8.00 | > 5.30 | > 7.00 | CNc1ncnc2[nH]cc(C(=O)c3ccc(Nc4ccc(C(F)(F)F)nc4)nc3F)c12 [Compound P-4092, [2-fluoro-6-[[6-(trifluoromethyl)-3-pyridyl]amino]-3-pyridyl]-[4-(methylamino)-7H-pyrrolo[2,3-d]pyrimidin-5-yl]methanone] |
| > 6.00 | > 5.30 | > 6.00 | CNc1ncnc2[nH]cc(C(=O)c3ccc(NC4CCCCC4)nc3F)c12 [Compound P-4102, [6-(cyclohexylamino)-2-fluoro-3-pyridyl]-[4-(methylamino)-7H-pyrrolo[2,3-d]pyrimidin-5-yl]methanone] |
| > 6.00 | < 5.00 | > 6.00 | CC(C)Nc1ncnc2[nH]cc(C(=O)c3ccc(NC4CCCCC4)nc3Cl)c12 [Compound P-4109, [2-chloro-6-(cyclohexylamino)-3-pyridyl]-[4-(isopropylamino)-7H-pyrrolo[2,3-d]pyrimidin-5-yl]methanone] |
| > 6.00 | < 5.00 | < 6.00 | O=C(c1ccc(NC2CCC(F)(F)CC2)nc1)c1c[nH]c2ncnc(NCC(F)(F)F)c12 [Compound P-4087, [6-[(4,4-difluorocyclohexyl)amino]-3-pyridyl]-[4-(2,2,2-trifluoroethylamino)-7H-pyrrolo[2,3-d]pyrimidin-5-yl]methanone] |
| < 5.00 | < 5.00 | < 6.00 | Fc1nc(NC2CCC(F)(F)CC2)ccc1Cc1c[nH]c2ncc(Cl)cc12 [Compound P-3013, [5-(5-Chloro-1H-pyrrolo[2,3-b]pyridin-3-ylmethyl)-6-fluoro-pyridin-2-yl]-(4,4-difluoro-cyclohexyl)-amine] |
| > 8.00 | < 5.00 | > 7.00 | CCc1ccc(Nc2ccc(C(=O)c3c[nH]c4ncnc(NCC5CC5)c34)c(F)n2)cn1 [Compound P-4118, [4-(cyclopropylmethylamino)-7H-pyrrolo[2,3-d]pyrimidin-5-yl]-[6-[(6-ethyl-3-pyridyl)amino]-2-fluoro-3-pyridyl]methanone] |
| < 5.00 |  | < 6.00 | Fc1ccccc1Nc1ncc(Cc2c[nH]c3ncc(Cl)cc23)cn1 [Compound P-3014, [5-(5-Chloro-1H-pyrrolo[2,3-b]pyridin-3-ylmethyl)-pyrimidin-2-yl]-(2-fluoro-phenyl)-amine] |
| < 5.00 |  | < 6.00 | Clc1cnc2[nH]cc(Cc3cnc(Nc4ccccc4Cl)nc3)c2c1 [Compound P-3015, (2-Chloro-phenyl)-[5-(5-chloro-1H-pyrrolo[2,3-b]pyridin-3-ylmethyl)-pyrimidin-2-yl]-amine] |
